ChEMBL document CHEMBL5375952, “Discovery of Novel 8-Hydroxyquinoline Derivatives with Potent In Vitro and In Vivo Antifungal Activity” (J Med Chem, 2023)
≈ marks a conversion by molar mass, not a printed value. Calls of active or inactive are those of the source. The calls are words filed in the database; no cut-off is given here.

Assays:
Candida albicans [1] = experiment: Antifungal activity against Candida albicans SC5314 assessed as fungal growth inhibition incubated for 48 hrs in presence of Mg2+ by broth microdilution method; type: functional, organism-based
Candida albicans [2] = experiment: Antifungal activity against Candida albicans SC5314 assessed as fungal growth inhibition incubated for 48 hrs in presence of Ca2+ by broth microdilution method; type: functional, organism-based
Nakaseomyces glabratus = experiment: Antifungal activity against Candida glabrata 201 assessed as fungal growth inhibition incubated for 48 hrs by broth microdilution method; type: functional
Cryptococcus neoformans [3] = experiment: Antifungal activity against Cryptococcus neoformans H99 assessed as fungal growth inhibition incubated for 48 hrs by broth microdilution method; type: functional
[4] = Toxicity in C57BL/6 mouse infected with Candida albicans SC5314 assessed as mean survival time at 2 mg/kg, ip (reference value: 5 day); type: organism-based; conditions: in vivo, 120 h
Candida albicans [5] = experiment: Antifungal activity against Candida albicans SC5314 infected in C57BL/6 mouse assessed as mean fungal burden at 2 mg/kg, ip measured after 46 hrs by plate count method (reference value: 6.890 log10CFU/ml); type: functional
[6] = Cytotoxicity against human Caco-2 cells assessed as cell growth inhibition incubated for 24 hrs by CCK8 assay; type: toxicity, cell-based
Candida albicans [7] = experiment: Antifungal activity against Candida albicans 21 assessed as fungal growth inhibition incubated for 48 hrs by broth microdilution method; type: functional
Candida albicans [8] = experiment: Antifungal activity against Candida albicans SC5314 assessed as fungal growth inhibition incubated for 48 hrs in presence of Zn2+ by broth microdilution method; type: functional, organism-based
[Candida] auris = Antifungal activity against Candida auris CBS 12372 assessed as fungal growth inhibition incubated for 48 hrs by broth microdilution method; type: functional; conditions: Candidozyma auris
Candida albicans [9] = experiment: Antifungal activity against Candida albicans SC5314 assessed as fungal growth inhibition incubated for 48 hrs in presence of K+ by broth microdilution method; type: functional, organism-based
Cryptococcus neoformans [10] = experiment: Antifungal activity against Cryptococcus neoformans 56992 assessed as fungal growth inhibition incubated for 48 hrs by broth microdilution method; type: functional
Candida albicans [11] = experiment: Antifungal activity against FLC-resistant Candida albicans 395 assessed as fungal growth inhibition incubated for 48 hrs by broth microdilution method; type: functional
Candida albicans [12] = experiment: Antifungal activity against FLC-resistant Candida albicans 304103 assessed as fungal growth inhibition incubated for 48 hrs by broth microdilution method; type: functional
Candida albicans [13] = experiment: Antifungal activity against FLC-resistant Candida albicans 17 assessed as fungal growth inhibition incubated for 48 hrs by broth microdilution method; type: functional
Candida albicans [14] = experiment: Antifungal activity against FLC-resistant Candida albicans 538 assessed as fungal growth inhibition incubated for 48 hrs by broth microdilution method; type: functional
Candida albicans [15] = experiment: Antifungal activity against FLC-resistant Candida albicans 8 assessed as fungal growth inhibition incubated for 48 hrs by broth microdilution method; type: functional
Candida albicans [16] = experiment: Antifungal activity against FLC-resistant Candida albicans 953 assessed as fungal growth inhibition incubated for 48 hrs by broth microdilution method; type: functional
Candida albicans [17] = experiment: Antifungal activity against FLC-resistant Candida albicans 540 assessed as fungal growth inhibition incubated for 48 hrs by broth microdilution method; type: functional
Candida albicans [18] = experiment: Antifungal activity against FLC-resistant Candida albicans 710513 assessed as fungal growth inhibition incubated for 48 hrs by broth microdilution method; type: functional
Candida albicans [19] = experiment: Antifungal activity against FLC-resistant Candida albicans 379 assessed as fungal growth inhibition incubated for 48 hrs by broth microdilution method; type: functional
Candida albicans [20] = experiment: Antifungal activity against FLC-resistant Candida albicans 10 assessed as fungal growth inhibition incubated for 48 hrs by broth microdilution method; type: functional
Candida albicans [21] = experiment: Antifungal activity against FLC-resistant Candida albicans 11 assessed as fungal growth inhibition incubated for 48 hrs by broth microdilution method; type: functional
Candida albicans [22] = experiment: Antifungal activity against FLC-resistant Candida albicans 14 assessed as fungal growth inhibition incubated for 48 hrs by broth microdilution method; type: functional
Candida albicans [23] = experiment: Inhibition of mature biofilm formation of Candida albicans SC5314 upto 16 ug/ml incubated for 24 hrs by XTT assay; type: functional, organism-based; conditions: dose <= 16.0 µg/ml
Candida albicans [24] = experiment: Antifungal activity against FLC-resistant Candida albicans 64548 assessed as fungal growth inhibition incubated for 48 hrs by broth microdilution method; type: functional
Candida albicans [25] = experiment: Antifungal activity against FLC-resistant Candida albicans 241 assessed as fungal growth inhibition incubated for 48 hrs by broth microdilution method; type: functional
Candida albicans [26] = experiment: Antifungal activity against FLC-resistant Candida albicans 710419 assessed as fungal growth inhibition incubated for 48 hrs by broth microdilution method; type: functional
Candida albicans [27] = experiment: Antifungal activity against FLC-resistant Candida albicans 100 assessed as fungal growth inhibition incubated for 48 hrs by broth microdilution method; type: functional
Candida albicans [28] = experiment: Antifungal activity against FLC-resistant Candida albicans 646 assessed as fungal growth inhibition incubated for 48 hrs by broth microdilution method; type: functional
Candida albicans [29] = experiment: Antifungal activity against FLC-resistant Candida albicans 710554 assessed as fungal growth inhibition incubated for 48 hrs by broth microdilution method; type: functional
[30] = Cytotoxicity against HUVEC cells assessed as cell growth inhibition incubated for 24 hrs by CCK8 assay; type: toxicity, cell-based; conditions: human
Candida albicans [31] = experiment: Antifungal activity against FLC-resistant Candida albicans 512644 assessed as fungal growth inhibition incubated for 48 hrs by broth microdilution method; type: functional
Candida albicans [32] = experiment: Antifungal activity against FLC-resistant Candida albicans 5740 assessed as fungal growth inhibition incubated for 48 hrs by broth microdilution method; type: functional
Candida albicans [33] = experiment: Antifungal activity against FLC-resistant Candida albicans 710452 assessed as fungal growth inhibition incubated for 48 hrs by broth microdilution method; type: functional
Candida albicans [34] = experiment: Antifungal activity against FLC-resistant Candida albicans 710506 assessed as fungal growth inhibition incubated for 48 hrs by broth microdilution method; type: functional
Candida albicans [35] = experiment: Antifungal activity against FLC-resistant Candida albicans 249 assessed as fungal growth inhibition incubated for 48 hrs by broth microdilution method; type: functional
Candida albicans [36] = experiment: Antifungal activity against FLC-resistant Candida albicans 385 assessed as fungal growth inhibition incubated for 48 hrs by broth microdilution method; type: functional
Candida albicans [37] = experiment: Antifungal activity against FLC-resistant Candida albicans 1221 assessed as fungal growth inhibition incubated for 48 hrs by broth microdilution method; type: functional
Candida albicans [38] = experiment: Antifungal activity against FLC-resistant Candida albicans 512681 assessed as fungal growth inhibition incubated for 48 hrs by broth microdilution method; type: functional
Candida albicans [39] = experiment: Antifungal activity against FLC-resistant Candida albicans 605141 assessed as fungal growth inhibition incubated for 48 hrs by broth microdilution method; type: functional
Candida albicans [40] = experiment: Antifungal activity against FLC-resistant Candida albicans 305 assessed as fungal growth inhibition incubated for 48 hrs by broth microdilution method; type: functional
Candida albicans [41] = experiment: Antifungal activity against FLC-resistant Candida albicans 819 assessed as fungal growth inhibition incubated for 48 hrs by broth microdilution method; type: functional
Candida albicans [42] = experiment: Antifungal activity against FLC-resistant Candida albicans 12 assessed as fungal growth inhibition incubated for 48 hrs by broth microdilution method; type: functional

SMILES: Oc1c(I)cc(Cl)c2cccnc12 [CLIOQUINOL]
- growth inhibition (GI) (Candida albicans [1]): Active
- growth inhibition (GI) (Candida albicans [2]): Active
- MIC (Nakaseomyces glabratus): 0.125 µg/mL (≈ 0.409 µM)
- MIC (Cryptococcus neoformans [3]): 0.125 µg/mL (≈ 0.409 µM)
- Survival [4]: 5 days
- Activity (Candida albicans [5]): 6.683 log10CFU/g
- IC50 at 24 h [6]: 19.3 µg/mL (≈ 63.1 µM)
- MIC (Candida albicans [7]): 0.125 µg/mL (≈ 0.409 µM)
- growth inhibition (GI) (Candida albicans [8]): Active
- MIC ([Candida] auris): 0.063 µg/mL (≈ 0.206 µM)
- growth inhibition (GI) (Candida albicans [9]): Active
- MIC (Cryptococcus neoformans [10]): 0.063 µg/mL (≈ 0.206 µM)

SMILES: OC(Cn1cncn1)(Cn1cncn1)c1ccc(F)cc1F [FLUCONAZOLE]
- MIC (Candida albicans [11]): 32 µg/mL (≈ 104 µM)
- MIC (Candida albicans [12]): 32 µg/mL (≈ 104 µM)
- MIC (Candida albicans [13]): 32 µg/mL (≈ 104 µM)
- MIC (Candida albicans [14]): > 64 µg/mL
- MIC (Candida albicans [15]): 16 µg/mL (≈ 52.2 µM)
- MIC (Candida albicans [16]): > 64 µg/mL
- MIC (Nakaseomyces glabratus): 1 µg/mL (≈ 3.27 µM)
- MIC (Cryptococcus neoformans [3]): 8 µg/mL (≈ 26.1 µM)
- MIC (Candida albicans [17]): > 64 µg/mL
- MIC (Candida albicans [18]): > 64 µg/mL
- MIC (Candida albicans [19]): > 64 µg/mL
- MIC (Candida albicans [20]): 32 µg/mL (≈ 104 µM)
- MIC (Candida albicans [21]): 32 µg/mL (≈ 104 µM)
- MIC (Candida albicans [22]): 32 µg/mL (≈ 104 µM)
- inhibition (Candida albicans [23]): inactive
- MIC (Candida albicans [24]): > 64 µg/mL
- MIC (Candida albicans [25]): > 64 µg/mL
- IC50 at 24 h [6]: > 64 µg/mL
- MIC (Candida albicans [26]): > 64 µg/mL
- MIC (Candida albicans [27]): 16 µg/mL (≈ 52.2 µM)
- MIC (Candida albicans [28]): > 64 µg/mL
- MIC (Candida albicans [29]): > 64 µg/mL
- IC50 at 24 h [30]: 9.18 µg/mL (≈ 30 µM)
- MIC (Candida albicans [7]): 0.5 µg/mL (≈ 1.63 µM)
- MIC (Candida albicans [31]): > 64 µg/mL
- MIC (Candida albicans [32]): 32 µg/mL (≈ 104 µM)
- MIC (Candida albicans [33]): > 64 µg/mL
- MIC (Candida albicans [34]): > 64 µg/mL
- MIC (Candida albicans [35]): 32 µg/mL (≈ 104 µM)
- MIC (Candida albicans [36]): > 64 µg/mL
- MIC (Candida albicans [37]): > 64 µg/mL
- MIC ([Candida] auris): > 64 µg/mL
- MIC (Candida albicans [38]): > 64 µg/mL
- MIC (Candida albicans [39]): > 64 µg/mL
- MIC (Cryptococcus neoformans [10]): 4 µg/mL (≈ 13.1 µM)
- MIC (Candida albicans [40]): > 64 µg/mL
- MIC (Candida albicans [41]): 32 µg/mL (≈ 104 µM)
- MIC (Candida albicans [42]): 32 µg/mL (≈ 104 µM)
